Experimental findings from patent US20090326234A1, “(S)-(-)-Amlodipine Camsylate or Hydrate Thereof And Pharmaceutical Composition Comprising Same” (Hanmi Pharm Co., Ltd., priority 2006, published 2009) are described below.

For this series the following is noted: for Purity (area %): HPLC; for degradation: after 36 hours exposure to sunlight; for appearance after exposure to sunlight: exposed to sunlight.
Where [1] appears, read: Initial, before exposure to sunlight.

Where two headings read alike, the source gives them in different places.

Experimental: 100 mg each of the above-mentioned 6 salts was respectively placed in 6 test tubes to prepare a total of 36 samples (6 samples per salt), and they were exposed to sunlight for 36 hours. Then, samples of each salt were taken at 6 hour-intervals and stored in a cool and dark place. After 36 hours, each sample was diluted with a 20 mM ammonium acetate buffer solution (pH=5.0)—acetonitrile mixture (1:1, v/v) and analyzed by HPLC under the following conditions: • Column: Symmetry C8 (4.6 mm×100 mm, 3.5 μm, Water, US) • Eluent: 1 l of a solution of 7 g perchloric acid monohydrate and 1.74 g potassium monohydrogen phosphate in purified water, which adjusted to pH 2.8 by the addition of phosphoric acid.

Take `CC1(C)C2CCC1(CS(=O)(=O)O)C(=O)C2.CCOC(=O)C1=C(COCCN)NC(C)=C(C(=O)OC)[C@@H]1c1ccccc1Cl.O` (racemic) [(±)-10-Camsylate hydrate of Ex. 3, S-(−)-amlodipine (±)-10-camsylate hydrate]: the “Purity (area %)” value under setting [1] is given as 99.8 area %; the “Purity (area %)” value (exposed to sunlight 6 hours) is given as 99.9 area %; the “Purity (area %)” value (exposed to sunlight 12 hours) was 99.8 area %; the “Purity (area %)” value (exposed to sunlight 18 hours) is listed as 99.7 area %; the “Purity (area %)” value (exposed to sunlight 24 hours) is 99.6 area %; the “Purity (area %)” value (exposed to sunlight 30 hours) was found to be 99.4 area %. The “Purity (area %)” value (exposed to sunlight 36 hours) is 99.3 area %.
As for `CC1(C)[C@@H]2CC[C@@]1(CS(=O)(=O)O)C(=O)C2.CCOC(=O)C1=C(COCCN)NC(C)=C(C(=O)OC)[C@@H]1c1ccccc1Cl` [(1S)-(+)-10-Camsylate anhydride of Ex. 2, S-(−)-amlodipine (1S)-(+)-10-camsylate anhydride], the “Purity (area %)” value runs as follows: under setting [1], 99.9 area %; (exposed to sunlight 6 hours) 99.9 area %; (exposed to sunlight 12 hours) 99.9 area %; (exposed to sunlight 18 hours) 99.9 area %; (exposed to sunlight 24 hours) 99.8 area %; (exposed to sunlight 30 hours) 99.7 area %. For the same compound, the “Purity (area %)” value (exposed to sunlight 36 hours) worked out at 99.7 area %.
In the case of `CC1(C)[C@@H]2CC[C@@]1(CS(=O)(=O)O)C(=O)C2.CCOC(=O)C1=C(COCCN)NC(C)=C(C(=O)OC)[C@@H]1c1ccccc1Cl.O` [(1S)-(+)-10-Camsylate hydrate of Ex. 1, S-(−)-amlodipine (1S)-(+)-10-camsylate hydrate], the “Purity (area %)” value under setting [1] is reported as 99.9 area %; the “Purity (area %)” value (exposed to sunlight 6 hours) came out at 99.9 area %; the “Purity (area %)” value (exposed to sunlight 12 hours) amounted to 99.9 area %; the “Purity (area %)” value (exposed to sunlight 18 hours) was found to be 99.8 area %; the “Purity (area %)” value (exposed to sunlight 24 hours) is on record as 99.8 area %; the “Purity (area %)” value (exposed to sunlight 30 hours) is 99.7 area %. Further, the “Purity (area %)” value (exposed to sunlight 36 hours) is given as 99.7 area %.
Consider `CC1(C)[C@H]2CC[C@]1(CS(=O)(=O)O)C(=O)C2.CCOC(=O)C1=C(COCCN)NC(C)=C(C(=O)OC)[C@@H]1c1ccccc1Cl` [(R)-Camsylate of Ref. Ex. 1, S-(−)-amlodipine (R)-camsylate], for which the degradation result is “about 5%”; the “appearance after exposure to sunlight” value was “color change of their surface from off-white to brown, and they becomes partially melted”. In addition, the “Purity (area %)” value under setting [1] stood at 99.8 area %. Besides, for the setting “exposed to sunlight 6 hours”, the “Purity (area %)” value was found to be 99.9 area %. Also, the “Purity (area %)” value (exposed to sunlight 12 hours) is listed as 99.7 area %. Besides, the “Purity (area %)” value (exposed to sunlight 18 hours) came to 99.0 area %. In addition, the “Purity (area %)” value (exposed to sunlight 24 hours) is reported as 98.1 area %. In addition, for the setting “exposed to sunlight 30 hours”, the “Purity (area %)” value is given as 96.2 area %. The “Purity (area %)” value (exposed to sunlight 36 hours) came to 94.8 area %.
With `CCOC(=O)C1=C(COCCN)NC(C)=C(C(=O)OC)[C@@H]1c1ccccc1Cl.O=S(=O)(O)c1ccccc1` [Besylate, (S)-(−)-amlodipine besylate], the degradation result is listed as “about 7%”; the “appearance after exposure to sunlight” value is “color change of their surface from off-white to brown, and they becomes partially melted”. Moreover, the “Purity (area %)” value under setting [1] stood at 99.8 area %. The “Purity (area %)” value (exposed to sunlight 6 hours) stood at 99.9 area %. Also, the “Purity (area %)” value (exposed to sunlight 12 hours) came to 99.4 area %. For the same compound, the “Purity (area %)” value (exposed to sunlight 18 hours) turned out to be 98.5 area %. Also, the “Purity (area %)” value (exposed to sunlight 24 hours) is 96.4 area %. In addition, the “Purity (area %)” value (exposed to sunlight 30 hours) worked out at 94.4 area %. For the same compound, the “Purity (area %)” value (exposed to sunlight 36 hours) stood at 93.4 area %.
For `CCOC(=O)C1=C(COCCN)NC(C)=C(C(=O)OC)C1c1ccccc1Cl` (stereo not drawn) [Nicotinate dehydrate, (s)-(−)-amlodipine nicotinate dihyrate], the degradation is recorded as about 2%. Moreover, under setting [1], the “Purity (area %)” value is on record as 99.8 area %. The “Purity (area %)” value (exposed to sunlight 6 hours) is 99.6 area %. The “Purity (area %)” value (exposed to sunlight 12 hours) is 99.0 area %. Further, the “Purity (area %)” value (exposed to sunlight 18 hours) is given as 98.3 area %. For the setting “exposed to sunlight 24 hours”, the “Purity (area %)” value is 98.3 area %. The “Purity (area %)” value (exposed to sunlight 30 hours) is on record as 98.2 area %. The “Purity (area %)” value (exposed to sunlight 36 hours) is listed as 97.9 area %.
